Read-outs that look alike come from different tables or passages of the source.
Key:
H460 cells [1] = experiment: Intracellular activation of hypoxia activated prodrugs (drug metabolism in medium of cells, LC-MS/UV 370 nm); conditions: for Example 12 compound UV peak area (370 nm): drug only (no cells), ~30 μM, 3 hours 37° C
H460 cells [2] = system: H460 cells
H460 cells [3] = experiment: Clonogenic toxicity assay; type: cell-based, human; conditions: 2 hr compound exposure; for IC90: Homo sapiens, NCI-H460, normoxic (air) and anoxic, no significant difference
Protocol: The clonogenic assay measures the reproductive ability of a surviving cell by specifically determining if a cell can grow to form a colony of greater than 50 cells. Briefly, cells are treated with a drug for an acute exposure and then the drug is removed. Cells are trypinized to form single cell suspensions and known numbers of cells are plated and incubated until colonies form. Colonies are counted and the cell survival is calculated based on number of colonies formed in the treated groups compared to number of colonies formed in the untreated controls. […] The terms aerobic and normoxic are used interchangeably.
Exponentially growing human H460 cells (obtained from ATCC) were seeded into 60 mm notched glass plates between 2.5 and 5×10^5 cells per plate and grown in RPMI medium supplemented with 10% fetal bovine serum for 2 days prior to initiating treatment. On the day of the experiment drug stocks of known concentrations were prepared in complete medium and 2 ml added to each plate. Glass plates were sealed into airtight aluminum vessels equipped with a valve to control gas flow. To achieve complete equilibration between the gas phase and the liquid phase a series of gas exchanges were performed on each vessel while shaking. Vessels were evacuated and gassed with either a certified anoxic gas mixture (95% nitrogen and 5% carbon dioxide) or with aerobic gas mixture (95% air and 5% carbon dioxide). Specifically, each vessel was evacuated to minus 26 inches of mercury and held for 15 seconds before gassing at 20 psi and again holding for 15 seconds. After a series of five evacuations and gassings the vessels were held an additional 5 minutes before a final evacuation and refilling of each vessel with the desired gas mixture at 0.5 psi above atmospheric pressure. Cells were incubated for 2 hours at 37° C. […] The exact concentration of each stock was determined by counting with a Coulter Z2 particle counter. […] Colonies of greater than 50 cells were counted and the surviving fraction determined.

CC[C@@]1(O)C(=O)OCc2c1cc1n(c2=O)Cc2cc3cc(O)ccc3nc2-1 [10-OH Camptothecin, 10-Hydroxycamptothecin, reference compound]
Example 12 compound UV peak area (370 nm) (H460 cells [1]; aerobic): 0
Example 12 compound UV peak area (370 nm) (H460 cells [1]; anoxic): 0

CCC1(O)C(=O)OCc2c1cc1n(c2=O)Cc2cc3cc(OCc4cnc([N+](=O)[O-])n4C)ccc3cc2-1 (stereo not drawn) [Example 12]
release of 10 hydroxycamptothecin (H460 cells [2]): no detectable release
10-Hydroxy Campothecin UV peak area (370 nm) (H460 cells [2]; 3 h, 30 uM): ~0
selectivity of release mechanism (anoxic versus hypoxic) (H460 cells [1]; in words): highly selective
degree of release (conversion to 10 hydroxy-camptothecin) (H460 cells [1]; trial 4: anoxic, with H460 cells): over half

COc1cccc2c1C(=O)c1c(O)c3c(c(O)c1C2=O)C[C@@](O)(C(C)=O)C[C@@H]3O[C@H]1C[C@H](N)[C@H](O)[C@H](C)O1 [daunorubicin]
toxicity difference between normoxic (air) and anoxic conditions (H460 cells [3]): no significant toxicity difference
IC90 (H460 cells [3]; read-out: IC 90 (90% inhibition of colony formation)): 500 nM
IC90 (H460 cells [3]; read-out: IC 90 data ranges over multiple experiments): 200 to 1000 nM

— US8299088B2, “Compositions and methods for treating cancer” (priority 2003, dated 2012)
